According to patent US6362369B1, “Phthalic acid diamide derivatives fluorine-containing aniline compounds as starting material, agricultural and horticultural insecticides, and a method for application of the insecticides” (Nihon Nohyaku Co., Ltd., priority 1997, dated 2002):

Legend:
Format in all cases: in vivo
[1] = test system: diamondback moth (Plutella xylostella); assay: Insecticidal effect on diamondback moth (Test Example 1); conditions: for Insecticidal effect, Test Example 1 / Insecticidal effect (Test Example 1), judged from mortality: diamondback moth; for Insecticidal effect on diamondback moth (Test Example 1), judged grade: mortality judged according to the criterion shown in Test Example 1; for Insecticidal effect (Test Example 1), judged from mortality: judged by the criterion of Test Example 1
Method in brief: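 Eggs laid by adult moths on Chinese cabbage seedlings, which were immersed in test solution, air-dried and kept at 25 °C. Hatched insects counted 6 days after immersion and mortality calculated, with effect graded by criterion; triplicate groups of 10 insects.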

[2] = test system: common cutworm (Spodoptera Litura); assay: Insecticidal effect on common cutworm (Test Example 2); conditions: 500 ppm, 25° C.; for Insecticidal effect, Test Example 2: cabbage leaf immersed; for Insecticidal effect, Test Example 2 / Insecticidal effect on common cutworm (Test Example 2), judged grade: eight days after inoculation; for Insecticidal effect on common cutworm (Test Example 2), judged grade / Insecticidal effect (Test Example 2), judged from mortality: cabbage leaf dip; for Insecticidal effect on common cutworm (Test Example 2), judged grade: second-instar larvae; for Insecticidal effect (Test Example 2), judged from mortality: 8 days after inoculation
Method in brief: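 Second-instar larvae placed in 9 cm Petri dishes with air-dried treated material, held at 25 °C. Dead and live insects counted 8 days after inoculation; mortality calculated and scored against a set criterion. Triplicate groups of 10 insects.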

[3] = test system: rice leafroller (Cnaphalocrocis medinalis); assay: Insecticidal effect on rice leafroller (Test Example 3); conditions: 500 ppm, 25° C., humidity 70%; for Insecticidal effect, Test Example 3: rice lamina immersed; for Insecticidal effect, Test Example 3 / Insecticidal effect on rice leafroller (Test Example 3), judged grade: four days after inoculation; for Insecticidal effect on rice leafroller (Test Example 3), judged grade / Insecticidal effect (Test Example 3), judged from mortality: rice lamina dip; for Insecticidal effect on rice leafroller (Test Example 3), judged grade: third-instar larvae; for Insecticidal effect (Test Example 3), judged from mortality: 4 days after inoculation
Method in brief: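 Groups of 10 third-instar larvae, in triplicate, are placed on air-dried lamina resting on wet filter paper. Incubation runs four days at 25° C with 70% humidity before survivors and dead are tallied.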

[4] = judged by the mortality criterion of Test Example 1
[5] = second-instar larvae of common cutworm
[6] = third-instar larvae of rice leafroller
[7] = mortality judged by criterion of Test Example 1
[8] = common cutworm second-instar larvae
[9] = rice leafroller third-instar larvae

Compound: Cc1cc(OC(F)(F)Br)ccc1NC(=O)c1cccc(Br)c1C(=O)NC(C)C [compound 290]
- Insecticidal effect, Test Example 1 [1, 4]: A (100)
- Insecticidal effect, Test Example 2 [2, 5]: A (100)
- Insecticidal effect, Test Example 3 [3, 6]: A (100)

Compound: Cc1cc(OC(F)F)ccc1NC(=O)c1ccc(Cl)cc1C(=O)NC(C)C [compound 180]
- Insecticidal effect, Test Example 1 [1, 4]: A (100)
- Insecticidal effect, Test Example 2 [2, 5]: A (100)
- Insecticidal effect, Test Example 3 [3, 6]: A (100)

Compound: Cc1cc(OC(F)(F)C(F)(Br)C(F)(F)F)ccc1NC(=O)c1c(F)cccc1C(=O)NC(C)C (stereo not drawn) [compound 569]
- Insecticidal effect on diamondback moth (Test Example 1), judged grade [1]: A (100)
- Insecticidal effect on common cutworm (Test Example 2), judged grade [2]: A (100)
- Insecticidal effect on rice leafroller (Test Example 3), judged grade [3]: A (100)

Compound: Cc1cc(OC(F)(F)C(F)C(F)(F)F)ccc1NC(=O)c1cccc(Cl)c1C(=O)NC(C)C (stereo not drawn) [compound 146]
- Insecticidal effect, Test Example 1 [1, 4]: A (100)
- Insecticidal effect, Test Example 2 [2, 5]: A (100)
- Insecticidal effect, Test Example 3 [3, 6]: A (100)

Compound: CCN(C(=O)c1c(I)cccc1C(=O)Nc1ccc(C(F)(F)C(F)(F)F)cc1C)C(C)C [compound 1159]
- Insecticidal effect, Test Example 1 [1, 7]: A (100)
- Insecticidal effect, Test Example 2 [2, 8]: A (100)
- Insecticidal effect, Test Example 3 [3, 9]: A (100)

Compound: Cc1cc(C(F)(F)F)ccc1NC(=O)c1cccc(Cl)c1C(=O)NC(C)C [compound 127]
- Insecticidal effect, Test Example 1 [1, 4]: A (100)
- Insecticidal effect, Test Example 2 [2, 5]: A (100)
- Insecticidal effect, Test Example 3 [3, 6]: A (100)

Compound: Cc1cc(C(F)(C(F)(F)F)C(F)(F)F)ccc1NC(=O)c1ccccc1C(=O)NC(C)(C)C [compound 1037]
- Insecticidal effect, Test Example 1 [1, 7]: A (100)
- Insecticidal effect, Test Example 2 [2, 8]: A (100)
- Insecticidal effect, Test Example 3 [3, 9]: A (100)

Compound: CC(C)NC(=O)c1c(F)cccc1C(=O)Nc1ccc(OC(F)F)cc1C(F)(F)F [compound 527]
- Insecticidal effect on diamondback moth (Test Example 1), judged grade [1]: A (100)
- Insecticidal effect on common cutworm (Test Example 2), judged grade [2]: A (100)
- Insecticidal effect on rice leafroller (Test Example 3), judged grade [3]: A (100)

Compound: CCc1cc(Cl)ccc1NC(=O)c1cccc(Br)c1C(=O)NC(C)C [compound 271]
- Insecticidal effect, Test Example 1 [1, 4]: A (100)
- Insecticidal effect, Test Example 2 [2, 5]: A (100)
- Insecticidal effect, Test Example 3 [3, 6]: A (100)

Compound: CCC(C)NC(=O)c1c(Cl)cccc1C(=O)Nc1ccc(C(F)(F)C(F)(F)F)cc1F (stereo not drawn) [compound 1498]
- Insecticidal effect (Test Example 1), judged from mortality [1]: A (100)
- Insecticidal effect (Test Example 2), judged from mortality [2, 5]: A (100)
- Insecticidal effect (Test Example 3), judged from mortality [3, 6]: A (100)

Compound: CC(C)NC(=O)c1c(I)cccc1C(=O)Nc1ccc(C(F)(F)C(F)(F)F)cc1 [compound 895]
- Insecticidal effect on diamondback moth (Test Example 1), judged grade [1]: A (100)
- Insecticidal effect on common cutworm (Test Example 2), judged grade [2]: A (100)
- Insecticidal effect on rice leafroller (Test Example 3), judged grade [3]: A (100)

Compound: C#CC(C)(C)NC(=O)c1c(I)cccc1C(=O)Nc1ccc(OC(F)F)cc1C [compound 1635]
- Insecticidal effect (Test Example 1), judged from mortality [1]: A (100)
- Insecticidal effect (Test Example 2), judged from mortality [2, 5]: A (100)
- Insecticidal effect (Test Example 3), judged from mortality [3, 6]: A (100)

Compound: CC(C)NC(=O)c1c(C(=O)Nc2ccc(C(F)(C(F)(F)F)C(F)(F)F)cc2Cl)cccc1[N+](=O)[O-] [compound 703]
- Insecticidal effect on diamondback moth (Test Example 1), judged grade [1]: A (100)
- Insecticidal effect on common cutworm (Test Example 2), judged grade [2]: A (100)
- Insecticidal effect on rice leafroller (Test Example 3), judged grade [3]: A (100)

Compound: Cc1c(Cl)cccc1NC(=O)c1cccc(F)c1C(=O)NC(C)C [compound 489]
- Insecticidal effect on diamondback moth (Test Example 1), judged grade [1]: A (100)
- Insecticidal effect on common cutworm (Test Example 2), judged grade [2]: A (100)
- Insecticidal effect on rice leafroller (Test Example 3), judged grade [3]: A (100)

Compound: CCN(CC)C(=O)c1c(Cl)cccc1C(=O)Nc1ccc(Cl)cc1C [compound 1542]
- Insecticidal effect (Test Example 1), judged from mortality [1]: A (100)
- Insecticidal effect (Test Example 2), judged from mortality [2, 5]: D (79-50)
- Insecticidal effect (Test Example 3), judged from mortality [3, 6]: A (100)

Compound: Cc1c(Cl)cccc1NC(=O)c1c(Br)cccc1C(=O)NC(C)C [compound 305]
- Insecticidal effect, Test Example 1 [1, 4]: A (100)
- Insecticidal effect, Test Example 2 [2, 5]: A (100)
- Insecticidal effect, Test Example 3 [3, 6]: A (100)

Compound: CCN(CC)C(=O)c1c(OC(F)(F)F)cccc1C(=O)Nc1ccc(C(F)(F)C(F)(F)F)cc1C [compound 1193]
- Insecticidal effect, Test Example 1 [1, 7]: A (100)
- Insecticidal effect, Test Example 2 [2, 8]: A (100)
- Insecticidal effect, Test Example 3 [3, 9]: A (100)

Compound: Cc1cc(C(F)(F)C(F)(F)F)ccc1NC(=O)c1ccccc1C(=O)N(C(C)C)C(C)C [compound 1071]
- Insecticidal effect, Test Example 1 [1, 7]: A (100)
- Insecticidal effect, Test Example 2 [2, 8]: C (89-80)
- Insecticidal effect, Test Example 3 [3, 9]: A (100)

Compound: Cc1cc(OC(F)(F)C(F)(Br)C(F)(F)F)ccc1NC(=O)c1cccc(I)c1C(=O)NC(C)C (stereo not drawn) [compound 394]
- Insecticidal effect, Test Example 1 [1, 4]: A (100)
- Insecticidal effect, Test Example 2 [2, 5]: A (100)
- Insecticidal effect, Test Example 3 [3, 6]: A (100)

Compound: Cc1cc(C(F)(F)C(F)(F)F)ccc1NC(=O)c1cccc(I)c1C(=O)NC(C)(C)CO [compound 1464]
- Insecticidal effect (Test Example 1), judged from mortality [1]: A (100)
- Insecticidal effect (Test Example 2), judged from mortality [2, 5]: A (100)
- Insecticidal effect (Test Example 3), judged from mortality [3, 6]: A (100)

Compound: CCC(C)(C)NC(=O)c1c(F)cccc1C(=O)Nc1ccc(C(F)(C(F)(F)F)C(F)(F)F)cc1C [compound 1153]
- Insecticidal effect, Test Example 1 [1, 7]: A (100)
- Insecticidal effect, Test Example 2 [2, 8]: A (100)
- Insecticidal effect, Test Example 3 [3, 9]: A (100)

Compound: Cc1cc(C(F)(C(F)(F)F)C(F)(F)F)ccc1NC(=O)c1cccc(I)c1C(=O)NC(C)c1cccs1 (stereo not drawn) [compound 1800]
- Insecticidal effect (Test Example 1), judged from mortality [1]: A (100)
- Insecticidal effect (Test Example 2), judged from mortality [2, 5]: A (100)
- Insecticidal effect (Test Example 3), judged from mortality [3, 6]: A (100)

Compound: CC(C)NC(=O)c1cccc(Cl)c1C(=O)Nc1ccc(C(F)(C(F)(F)F)C(F)(F)F)cc1 [compound 198]
- Insecticidal effect, Test Example 1 [1, 4]: A (100)
- Insecticidal effect, Test Example 2 [2, 5]: C (89-80)
- Insecticidal effect, Test Example 3 [3, 6]: A (100)

Compound: COc1cccc(C(=O)Nc2ccc(Br)cc2C)c1C(=O)NC(C)C [compound 768]
- Insecticidal effect on diamondback moth (Test Example 1), judged grade [1]: A (100)
- Insecticidal effect on common cutworm (Test Example 2), judged grade [2]: B (99-90)
- Insecticidal effect on rice leafroller (Test Example 3), judged grade [3]: A (100)

Compound: Cc1cc(OC(F)F)ccc1NC(=O)c1cccc(Br)c1C(=O)NC(C)C [compound 288]
- Insecticidal effect, Test Example 1 [1, 4]: A (100)
- Insecticidal effect, Test Example 2 [2, 5]: A (100)
- Insecticidal effect, Test Example 3 [3, 6]: A (100)

Compound: Cc1cc(C(F)(F)C(F)(F)F)ccc1NC(=O)c1cccc(Cl)c1C(=O)NC(C)(C)C#Cc1c(Cl)cccc1Cl [compound 1586]
- Insecticidal effect (Test Example 1), judged from mortality [1]: A (100)
- Insecticidal effect (Test Example 2), judged from mortality [2, 5]: C (89-80)
- Insecticidal effect (Test Example 3), judged from mortality [3, 6]: A (100)

Compound: Cc1cc(OC(F)(F)C(F)C(F)(F)F)ccc1NC(=O)c1cccc([N+](=O)[O-])c1C(=O)NC(C)C (stereo not drawn) [compound 716]
- Insecticidal effect on diamondback moth (Test Example 1), judged grade [1]: A (100)
- Insecticidal effect on common cutworm (Test Example 2), judged grade [2]: A (100)
- Insecticidal effect on rice leafroller (Test Example 3), judged grade [3]: A (100)

Compound: Cc1cc(C(F)(F)C(F)(F)F)ccc1NC(=O)c1cccc(I)c1C(=O)NCc1ccccc1 [compound 1400]
- Insecticidal effect, Test Example 1 [1, 7]: A (100)
- Insecticidal effect, Test Example 2 [2, 8]: A (100)
- Insecticidal effect, Test Example 3 [3, 9]: A (100)

Compound: Cc1cc(C(F)(F)C(F)(F)C(F)(F)C(F)(F)F)ccc1NC(=O)c1c(I)cccc1C(=O)NC(C)C [compound 440]
- Insecticidal effect, Test Example 1 [1, 4]: A (100)
- Insecticidal effect, Test Example 2 [2, 5]: C (89-80)
- Insecticidal effect, Test Example 3 [3, 6]: B (99-90)

Compound: COCCCNC(=O)c1c(I)cccc1C(=O)Nc1ccc(C(F)(F)C(F)(F)F)cc1C [compound 985]
- Insecticidal effect, Test Example 1 [1, 7]: A (100)
- Insecticidal effect, Test Example 2 [2, 8]: A (100)
- Insecticidal effect, Test Example 3 [3, 9]: A (100)

Compound: CCc1cc(OC(F)(F)F)ccc1NC(=O)c1cccc(I)c1C(=O)NC(C)(C)C [compound 1211]
- Insecticidal effect, Test Example 1 [1, 7]: A (100)
- Insecticidal effect, Test Example 2 [2, 8]: A (100)
- Insecticidal effect, Test Example 3 [3, 9]: A (100)

Compound: Cc1cc(C(F)(F)C(F)(F)F)ccc1NC(=O)c1cccc(Cl)c1C(=O)NCCCO [compound 1399]
- Insecticidal effect, Test Example 1 [1, 7]: A (100)
- Insecticidal effect, Test Example 2 [2, 8]: A (100)
- Insecticidal effect, Test Example 3 [3, 9]: A (100)

Compound: CCCNC(=O)c1c(Cl)cccc1C(=O)Nc1ccc(C(F)(F)C(F)(F)F)cc1F [compound 1491]
- Insecticidal effect (Test Example 1), judged from mortality [1]: A (100)
- Insecticidal effect (Test Example 2), judged from mortality [2, 5]: A (100)
- Insecticidal effect (Test Example 3), judged from mortality [3, 6]: A (100)

Compound: CC(C)NC(=O)c1c(Cl)cccc1C(=O)Nc1ccc2c(c1)OC(F)C(F)(F)O2 (stereo not drawn) [compound 1147]
- Insecticidal effect, Test Example 1 [1, 7]: A (100)
- Insecticidal effect, Test Example 2 [2, 8]: A (100)
- Insecticidal effect, Test Example 3 [3, 9]: A (100)

Compound: Cc1cc(C(F)(F)F)ccc1NC(=O)c1c(Cl)cccc1C(=O)NC(C)C [compound 221]
- Insecticidal effect, Test Example 1 [1, 4]: A (100)
- Insecticidal effect, Test Example 2 [2, 5]: A (100)
- Insecticidal effect, Test Example 3 [3, 6]: A (100)

Compound: Cc1cc(C(F)(C(F)(F)F)C(F)(F)F)ccc1NC(=O)c1cccc(I)c1C(=O)NC(C)C [compound 374]
- Insecticidal effect, Test Example 1 [1, 4]: A (100)
- Insecticidal effect, Test Example 2 [2, 5]: A (100)
- Insecticidal effect, Test Example 3 [3, 6]: A (100)
